Experimental data from ChEMBL document CHEMBL1201862, “PubChem BioAssay data set” (2004).
The source made the active and inactive calls.

Key:
fMet-Leu-Phe receptor = fMet-Leu-Phe receptor (Homo sapiens, UniProt P21462); assay: FPR ligands, dose response (AID 519); format: functional
[1] = ADAM10 inhibitors, peptide cleavage, dose response, biochemical, QFRET (AID 743254);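 further: ADAM10 enzyme with the DM2 quenched FRET peptide as substrate; EDANS fluorescence gain as the protease cuts the substrate; inhibitor potency against ADAM10 proteolytic activity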
[2] = molecular target: Disintegrin and metalloproteinase domain-containing protein 17 (Homo sapiens, UniProt P78536); assay: ADAM17 protease inhibitors, dose response, counter-screen for ADAM10 exosite inhibitor project, biochemical, quenched FRET substrate (AID 743253)
Disintegrin and metalloproteinase domain-containing protein 17, sequence (P78536 whole entry, the tested form may be a part): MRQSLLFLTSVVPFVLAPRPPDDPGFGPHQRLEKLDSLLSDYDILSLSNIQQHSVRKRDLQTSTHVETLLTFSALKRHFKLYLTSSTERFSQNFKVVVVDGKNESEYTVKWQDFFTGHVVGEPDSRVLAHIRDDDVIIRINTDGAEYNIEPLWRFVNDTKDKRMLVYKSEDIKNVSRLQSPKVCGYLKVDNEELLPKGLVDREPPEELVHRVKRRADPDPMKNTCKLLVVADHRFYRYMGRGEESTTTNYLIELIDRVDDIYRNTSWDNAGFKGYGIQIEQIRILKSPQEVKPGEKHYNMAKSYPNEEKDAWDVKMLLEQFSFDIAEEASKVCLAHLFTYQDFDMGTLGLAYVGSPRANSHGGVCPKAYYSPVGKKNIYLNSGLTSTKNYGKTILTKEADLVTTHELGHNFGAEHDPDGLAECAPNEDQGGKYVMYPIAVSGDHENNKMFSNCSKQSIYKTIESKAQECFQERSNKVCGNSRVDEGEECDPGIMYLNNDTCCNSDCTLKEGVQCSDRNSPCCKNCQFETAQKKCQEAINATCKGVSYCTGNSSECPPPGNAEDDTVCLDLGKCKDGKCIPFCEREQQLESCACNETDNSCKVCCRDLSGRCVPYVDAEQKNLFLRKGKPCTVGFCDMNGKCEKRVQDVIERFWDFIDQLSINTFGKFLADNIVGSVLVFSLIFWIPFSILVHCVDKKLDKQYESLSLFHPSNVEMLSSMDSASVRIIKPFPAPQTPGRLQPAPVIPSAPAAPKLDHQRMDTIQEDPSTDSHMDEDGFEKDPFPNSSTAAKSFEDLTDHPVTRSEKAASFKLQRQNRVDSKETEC

[3] = molecular target: NAD-dependent protein deacylase sirtuin-5, mitochondrial (Homo sapiens, UniProt Q9NXA8); assay: SIRT5 desuccinylase inhibitors, dose response, biochemical, fluorescence imaging, cherry-pick, set 5 (AID 720591);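 further: desuccinylation of succinyl peptide AMC substrate read as fluorescence after trypsin release; potency of inhibitors that lower fluorescence and may act on trypsin instead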
NAD-dependent protein deacylase sirtuin-5, mitochondrial, sequence (Q9NXA8 whole entry): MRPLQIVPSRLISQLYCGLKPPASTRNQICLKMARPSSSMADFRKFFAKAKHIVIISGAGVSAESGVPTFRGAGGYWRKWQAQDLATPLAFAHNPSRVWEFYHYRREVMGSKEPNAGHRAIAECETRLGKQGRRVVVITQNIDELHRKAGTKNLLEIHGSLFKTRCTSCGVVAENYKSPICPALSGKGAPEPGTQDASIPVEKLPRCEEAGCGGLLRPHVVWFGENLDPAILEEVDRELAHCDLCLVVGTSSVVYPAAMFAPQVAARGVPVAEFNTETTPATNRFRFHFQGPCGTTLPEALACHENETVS

Escherichia coli [4] = assay: microbe, parasite or virus in culture
Escherichia coli [5] = assay: microbe, parasite or virus in culture; remark: listed apart in the source
[6] = molecular target: T1, Corticotropin-releasing factor receptor 2/Corticotropin-releasing factor-binding protein (Homo sapiens, UniProt P24387+Q13324); assay: activators of CRF receptor 2 with binding protein – uHTS hits, confirmation (AID 602473); format: functional; conditions: read-out: EC50_Mean
T1 sequence (Q13324 whole entry): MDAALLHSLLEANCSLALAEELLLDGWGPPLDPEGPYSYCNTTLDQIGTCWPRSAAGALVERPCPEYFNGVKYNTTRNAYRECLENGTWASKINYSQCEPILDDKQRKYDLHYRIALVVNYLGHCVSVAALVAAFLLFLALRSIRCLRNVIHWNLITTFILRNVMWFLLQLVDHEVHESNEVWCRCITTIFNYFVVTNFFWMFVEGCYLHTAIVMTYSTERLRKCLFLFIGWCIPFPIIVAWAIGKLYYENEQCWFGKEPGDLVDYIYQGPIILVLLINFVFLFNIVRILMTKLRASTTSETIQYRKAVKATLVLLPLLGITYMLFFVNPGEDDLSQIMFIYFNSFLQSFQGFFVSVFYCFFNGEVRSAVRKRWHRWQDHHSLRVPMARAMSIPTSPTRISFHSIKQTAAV
T1 sequence (P24387 whole entry): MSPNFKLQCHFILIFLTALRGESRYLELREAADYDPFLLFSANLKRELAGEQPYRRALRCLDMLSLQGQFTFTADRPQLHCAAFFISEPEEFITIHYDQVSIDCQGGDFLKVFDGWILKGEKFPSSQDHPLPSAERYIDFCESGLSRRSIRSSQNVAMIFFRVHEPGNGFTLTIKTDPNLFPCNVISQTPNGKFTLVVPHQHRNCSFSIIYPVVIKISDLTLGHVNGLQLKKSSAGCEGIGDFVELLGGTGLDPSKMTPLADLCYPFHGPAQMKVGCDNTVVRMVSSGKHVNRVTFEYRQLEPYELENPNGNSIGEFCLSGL

[7] = molecular target: T2, Scavenger receptor class B member 1 (Mus musculus, UniProt Q61009); assay: inhibitors of SR-BI dependent HDL uptake, dose response, ldlA[mSR-BI] CHO cells, fluorescence plate reader, dry powder, set 9 (AID 623880); format: functional, cell-based
T2 sequence (Q61009 whole entry): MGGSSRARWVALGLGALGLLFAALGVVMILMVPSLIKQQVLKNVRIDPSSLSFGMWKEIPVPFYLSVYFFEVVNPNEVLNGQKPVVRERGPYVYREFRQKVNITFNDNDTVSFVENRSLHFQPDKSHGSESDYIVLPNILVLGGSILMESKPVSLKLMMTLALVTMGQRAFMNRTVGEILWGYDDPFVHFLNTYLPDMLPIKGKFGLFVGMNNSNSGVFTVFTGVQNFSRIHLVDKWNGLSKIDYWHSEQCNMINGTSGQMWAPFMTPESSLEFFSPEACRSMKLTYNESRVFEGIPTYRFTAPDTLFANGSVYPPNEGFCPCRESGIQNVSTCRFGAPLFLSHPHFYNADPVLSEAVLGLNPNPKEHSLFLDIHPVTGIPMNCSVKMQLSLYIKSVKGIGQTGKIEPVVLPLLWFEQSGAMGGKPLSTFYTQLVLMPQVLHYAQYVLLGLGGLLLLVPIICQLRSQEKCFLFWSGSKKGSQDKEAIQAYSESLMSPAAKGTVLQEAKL

[8] = molecular target: T2, Scavenger receptor class B member 1; assay: inhibitors of SR-BI-mediated HDL uptake, dose response, cell-based, ldlA[mSR-BI] CHO, DiI fluorescence, dry powder, set 10 (AID 624029); format: functional
Cytochrome P450 3A4 = Cytochrome P450 3A4 (Homo sapiens, UniProt P08684);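 further: CYP3A4 tested as one member of a cytochrome P450 panel screen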
Cytochrome P450 3A4, sequence (P08684 whole entry): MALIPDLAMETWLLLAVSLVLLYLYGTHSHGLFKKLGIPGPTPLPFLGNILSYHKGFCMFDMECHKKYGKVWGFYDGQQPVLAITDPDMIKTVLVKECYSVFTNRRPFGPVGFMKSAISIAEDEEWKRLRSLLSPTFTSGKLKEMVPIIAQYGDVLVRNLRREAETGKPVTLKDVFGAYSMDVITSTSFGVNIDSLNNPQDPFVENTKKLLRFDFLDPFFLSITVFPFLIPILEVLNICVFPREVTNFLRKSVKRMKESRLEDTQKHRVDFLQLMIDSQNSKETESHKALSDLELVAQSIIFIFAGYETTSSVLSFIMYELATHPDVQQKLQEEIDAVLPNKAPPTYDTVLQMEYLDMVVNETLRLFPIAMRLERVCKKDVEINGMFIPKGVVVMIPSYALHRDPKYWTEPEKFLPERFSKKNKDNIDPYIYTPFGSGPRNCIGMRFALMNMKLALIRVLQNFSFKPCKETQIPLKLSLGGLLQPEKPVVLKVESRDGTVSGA

Cytochrome P450 2C9 = Cytochrome P450 2C9 (Homo sapiens, UniProt P11712)
Cytochrome P450 2C9, sequence (P11712 whole entry): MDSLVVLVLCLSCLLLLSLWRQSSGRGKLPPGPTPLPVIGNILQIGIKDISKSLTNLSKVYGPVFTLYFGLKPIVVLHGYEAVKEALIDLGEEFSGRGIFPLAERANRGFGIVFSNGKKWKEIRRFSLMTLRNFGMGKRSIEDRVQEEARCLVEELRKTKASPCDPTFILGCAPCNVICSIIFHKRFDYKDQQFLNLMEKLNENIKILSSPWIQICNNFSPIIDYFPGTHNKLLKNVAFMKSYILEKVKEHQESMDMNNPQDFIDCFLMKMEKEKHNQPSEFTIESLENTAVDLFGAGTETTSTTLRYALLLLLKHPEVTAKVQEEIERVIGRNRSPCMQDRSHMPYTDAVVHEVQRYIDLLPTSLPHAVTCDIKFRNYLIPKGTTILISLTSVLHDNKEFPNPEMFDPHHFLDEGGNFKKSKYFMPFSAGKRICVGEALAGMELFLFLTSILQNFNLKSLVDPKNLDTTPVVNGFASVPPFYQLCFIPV

cells [9] = format: functional, cell-based
[10] = molecular target: T3, Trace amine-associated receptor 1 (Homo sapiens, UniProt Q96RJ0); assay: Fluorescence-based cell-based high throughput dose response assay to identify agonists of the human trace amine associated receptor 1 (TAAR1).; format: functional
T3 sequence (Q96RJ0 whole entry): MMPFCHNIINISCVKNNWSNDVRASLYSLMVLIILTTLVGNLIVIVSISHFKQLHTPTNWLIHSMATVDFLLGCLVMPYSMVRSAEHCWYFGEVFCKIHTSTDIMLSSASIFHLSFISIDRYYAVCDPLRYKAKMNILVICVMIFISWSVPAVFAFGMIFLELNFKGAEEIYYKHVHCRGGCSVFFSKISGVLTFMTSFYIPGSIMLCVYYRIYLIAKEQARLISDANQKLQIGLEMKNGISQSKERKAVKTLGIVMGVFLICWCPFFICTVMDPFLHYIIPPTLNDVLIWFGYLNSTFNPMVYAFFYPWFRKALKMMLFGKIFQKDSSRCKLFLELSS

[11] = molecular target: T3, Trace amine-associated receptor 1; assay: Counterscreen for agonists of the human trace amine associated receptor 1 (hTAAR1): Fluorescence-based cell-based high throughput dose response assay to identify hTAAR1 agonist that also desensitize TAAR1 receptor response.; format: functional
cells [12] = format: functional, cell-based; remark: listed apart in the source
[13] = Luminescence Cell-Based Dose Retest to Confirm Inhibitors of Cancer Stem Cells. [Related pubchem assays (depositor defined):AID2717, AID2721]; format: functional; conditions: Homo sapiens
[14] = Fluorescence-based cell-based high throughput dose response assay for inhibitors of the interaction of nucleotide-binding oligomerization domain containing 2 (NOD2) and the receptor-interacting serine-threonine kinase 2 (RIPK2).; format: functional; conditions: Homo sapiens
Paired box protein Pax-8 = Paired box protein Pax-8 (Homo sapiens, UniProt Q06710); assay: inhibitors of PAX8-driven TPO luciferase reporter, dose response, RMG-I cells, cherry-pick (AID 687027); format: functional, cell-based;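 further: luciferase reporter driven by Pax8 target thyroperoxidase promoter measured by SteadyGlo luminescence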
Paired box protein Pax-8, sequence (Q06710 whole entry): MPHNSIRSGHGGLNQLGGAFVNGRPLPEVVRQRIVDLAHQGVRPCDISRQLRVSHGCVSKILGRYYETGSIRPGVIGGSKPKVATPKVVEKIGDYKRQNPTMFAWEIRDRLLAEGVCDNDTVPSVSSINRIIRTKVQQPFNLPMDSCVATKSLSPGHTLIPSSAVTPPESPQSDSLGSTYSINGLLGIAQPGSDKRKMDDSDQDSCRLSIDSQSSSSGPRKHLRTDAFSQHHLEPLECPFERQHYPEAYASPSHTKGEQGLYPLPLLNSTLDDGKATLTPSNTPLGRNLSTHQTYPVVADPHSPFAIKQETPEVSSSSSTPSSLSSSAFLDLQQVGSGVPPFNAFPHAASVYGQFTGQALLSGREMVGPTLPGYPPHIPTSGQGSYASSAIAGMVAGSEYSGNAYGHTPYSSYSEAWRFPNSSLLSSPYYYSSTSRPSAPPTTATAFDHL

[15] = inhibitors of PGC1a acetylation in cells, dose response, cell-based, cherry-picked samples (AID 720514); format: functional;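 further: potency may reflect raised or lowered acetylation signal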
[16] = A549 cell cytotoxicity, dose response, cytotoxicity control, plate reader, cherry-pick, antagonist series (AID 743412); format: functional, cell-based
[17] = HepG2 cell cytotoxicity, dose response, cytotoxicity control, plate reader, cherry-pick, antagonist series (AID 743416); format: functional, cell-based
[18] = LGR2 antagonists, dose response, cell-based, HEK293, CRE-luciferase reporter, cherry pick, set 2 (AID 743343); format: functional;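 further: transfected cells were stimulated with diluted bursicon conditioned medium after compound addition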
[19] = MC4R antagonists, dose response, counter-screen for LGR2 antagonist project, cell-based, plate reader, cherry pick (AID 743444); format: functional;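 further: transfected HEK 293 cells stimulated with alpha-MSH peptide; potency of inhibitors of the alpha-MSH evoked signal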
[20] = HEK293 cell cytotoxicity, dose response, cytotoxicity control, plate reader, cherry-picked samples (AID 743446); format: functional, cell-based
[21] = molecular target: Fructose-bisphosphate aldolase (Mycobacterium tuberculosis, UniProt P9WQA3); assay: Fluorescence-based biochemical high throughput dose response assay for inhibitors of the fructose-bisphosphate aldolase (FBA) of M. tuberculosis.; format: functional
Fructose-bisphosphate aldolase, sequence (P9WQA3 whole entry): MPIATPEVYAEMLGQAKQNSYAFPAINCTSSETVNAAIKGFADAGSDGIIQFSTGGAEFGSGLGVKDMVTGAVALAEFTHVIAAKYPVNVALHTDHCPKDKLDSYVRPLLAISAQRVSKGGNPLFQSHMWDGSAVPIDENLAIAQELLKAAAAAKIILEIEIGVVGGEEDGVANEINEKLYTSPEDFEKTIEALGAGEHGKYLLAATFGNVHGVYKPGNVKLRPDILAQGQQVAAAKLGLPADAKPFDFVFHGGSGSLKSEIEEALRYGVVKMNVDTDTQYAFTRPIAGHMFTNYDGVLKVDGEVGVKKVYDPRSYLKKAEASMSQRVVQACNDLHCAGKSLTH

fMet-Leu-Phe receptor, sequence (P21462 whole entry): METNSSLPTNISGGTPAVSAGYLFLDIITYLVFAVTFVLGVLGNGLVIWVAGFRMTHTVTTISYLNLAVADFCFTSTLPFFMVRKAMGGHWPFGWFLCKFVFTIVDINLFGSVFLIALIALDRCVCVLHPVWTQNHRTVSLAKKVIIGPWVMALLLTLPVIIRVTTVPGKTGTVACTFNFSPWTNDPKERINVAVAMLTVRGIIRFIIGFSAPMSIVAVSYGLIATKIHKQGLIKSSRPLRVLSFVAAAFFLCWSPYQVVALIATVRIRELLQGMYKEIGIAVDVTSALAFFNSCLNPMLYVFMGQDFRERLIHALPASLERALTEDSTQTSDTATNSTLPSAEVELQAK

CCOc1ccc(C2C(C(=O)c3ccco3)=C(O)C(=O)N2CCCn2ccnc2)cc1 (centres undefined)
Ki (fMet-Leu-Phe receptor): 9.9 µM (active)

O=C(C1CCC(Cn2c(=S)[nH]c3ccccc3c2=O)CC1)N1CCN(c2ccccc2)CC1 (centres undefined)
IC50 [1]: > 69.5 µM (inactive) | IC50 [2]: > 69.5 µM (inactive)

Nc1ccccc1SCc1cn2ccccc2n1
AC50 [3]: 20.6 µM (active) | AC50 (Escherichia coli [4]): 19.9 µM (active) | AC50 (Escherichia coli [5]): 7.26 µM (active)

O=C1C2C3C=CC(C3)C2C(=O)N1c1cccc(N2C(=O)C3C4C=CC(C4)C3C2=O)n1 (centres undefined)
EC50 [6]: > 53 µM (inactive) | AC50 [7]: 45.2 µM (active) | AC50 [8]: > 70 µM (inactive)

CCOc1cccc(C(=O)C2=C(O)C(=O)N(Cc3ccco3)C2c2ccncc2)c1 (centres undefined)
Ki (fMet-Leu-Phe receptor): > 66.7 µM (inactive) | AC50 (Cytochrome P450 3A4): 22.4 µM (inconclusive) | AC50 (Cytochrome P450 2C9): 14.1 µM (inconclusive)

COc1ccccc1N1CCN(C(C)C(=O)N2CC(C)OC(C)C2)CC1 (centres undefined)
AC50 [3]: > 30 µM (inactive)

Cc1cccc(CCNCc2cc3ccc(C)cc3nc2O)c1
IC50 (cells [9]): > 29.9 µM (inactive) | EC50 [10]: 3.44 µM (active) | IC50 [11]: 7.79 µM (active) | EC50 (cells [12]): 24.9 µM (inactive)

O=C(Cn1ncc(Cl)c(Cl)c1=O)NC(=O)NC1CCCCC1
AC50 [13]: 1.81 µM (active) | IC50 [14]: 3.13 µM (active) | AC50 (Paired box protein Pax-8): 2.85 µM (active) | AC50 [15]: 4.83 µM (active) | AC50 [16]: 7.17 µM (active) | AC50 [17]: 7.9 µM (active) | AC50 [18]: 25.8 µM (active) | AC50 [19]: 26.2 µM (active) | AC50 [20]: 7.89 µM (active)

O=C(c1ccccc1)c1ccc(OCC(O)CN2CCOCC2)cc1 (centres undefined)
IC50 [21]: > 9.99 µM (inactive)

COc1ccc(NC(=O)Cn2nnc(-c3ccccc3)c2COc2ccc3ccccc3c2)cn1
IC50 [1]: > 7.72 µM (active) | IC50 [2]: > 69.5 µM (inactive)
